US20230143612A1 (Arbutus Biopharma Corporation, priority 2020, published 2023)

biological target: PD-L1 His protein / PD-1 Fc protein (Homo sapiens, UniProt Q9NZQ7); assay: HTRF Assay (PD-1/PD-L1 interaction); format: binding; settings: PD-L1 His 6 nM, PD-1 Fc 6 nM
Method in brief: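 Compounds tested from 20 μM down to 0.001 μM (3-fold) against 6 nM PD-L1 His and 6 nM PD-1 Fc, 15 min room temperature incubation. Detection after 1 h at room temperature with Tb cryptate anti-6HIS and XL665 anti-human IgG reagents (mixture at 0.35 nM and 6.7 nM), HTRF signal.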

Chain of PD-L1 His protein / PD-1 Fc protein (Q9NZQ7 19-238 limits assumed): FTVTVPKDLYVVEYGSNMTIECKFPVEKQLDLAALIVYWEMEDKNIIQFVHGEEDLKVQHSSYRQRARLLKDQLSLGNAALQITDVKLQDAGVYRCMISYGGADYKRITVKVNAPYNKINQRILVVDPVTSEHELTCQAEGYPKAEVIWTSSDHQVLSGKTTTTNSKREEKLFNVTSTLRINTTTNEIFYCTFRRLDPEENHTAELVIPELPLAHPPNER

Row | SMILES | IC50
1 | COc1nc(-c2cccc(-c3cccc(-c4ccn5nc(CNC[C@@H]6CCC(=O)N6)cc5n4)c3Cl)c2Cl)ccc1CNC[C@@H]1CCC(=O)N1 [Example 82, (S)-5-((((6-(2,2′-Dichloro-3′-(2-(((((S)-5-oxopyrrolidin-2-yl)methyl)amino)methyl)pyrazolo[1,5-a]pyrimidin-5-yl)-[1,1′-biphenyl]-3-yl)-2-methoxypyridin-3-yl)methyl)amino)methyl)pyrrolidin-2-one] | 9.9 nM
2 | COc1nc(-c2cccc(-c3cccc(-c4ccn5c(=O)c(CN6CC[C@H](C(=O)O)C6)cnc5c4)c3Cl)c2Cl)ccc1CN1CC(CO)C1 [Example 83, (S)-1-((8-(2,2′-Dichloro-3′-(5-((3-(hydroxymethyl)azetidin-1-yl)methyl)-6-methoxypyridin-2-yl)-[1,1′-biphenyl]-3-yl)-4-oxo-4H-pyrido[1,2-a]pyrimidin-3-yl)methyl)pyrrolidine-3-carboxylic acid] | 0.4 nM
3 | COc1nc(-c2cccc(-c3cccc(-c4ccn5c(=O)c(CN6CC(C(=O)O)C6)cnc5c4)c3Cl)c2Cl)ccc1CN1CC(CO)C1 [Example 84, 1-((8-(2,2′-Dichloro-3′-(5-((3-(hydroxymethyl)azetidin-1-yl)methyl)-6-methoxypyridin-2-yl)-[1,1′-biphenyl]-3-yl)-4-oxo-4H-pyrido[1,2-a]pyrimidin-3-yl)methyl)azetidine-3-carboxylic acid] | 0.3 nM
4 | COc1nc(-c2cccc(-c3cccc(-c4ccn5c(=O)c(CNC[C@@H]6CCC(=O)N6)ccc5c4)c3Cl)c2Cl)ccc1CNC[C@@H]1CCC(=O)N1 [Example 85, 8-(2,2′-Dichloro-3′-(6-methoxy-5-(((((S)-5-oxopyrrolidin-2-yl)methyl)amino)methyl)pyridin-2-yl)-[1,1′-biphenyl]-3-yl)-3-(((((S)-5-oxopyrrolidin-2-yl)methyl)amino)methyl)-4H-quinolizin-4-one] | 2.5 nM
5 | COc1nc(-c2cc(F)cc(-c3cccc(-c4ccn5c(=O)c(CNC[C@@H]6CCC(=O)N6)cnc5c4)c3Cl)c2Cl)ccc1CNC[C@@H]1CCC(=O)N1 [Example 86, 8-(2,2′-Dichloro-5′-fluoro-3′-(6-methoxy-5-(((((S)-5-oxopyrrolidin-2-yl)methyl)amino)methyl)pyridin-2-yl)-[1,1′-biphenyl]-3-yl)-3-(((((S)-5-oxopyrrolidin-2-yl)methyl)amino)methyl)-4H-pyrido[1,2-a]pyrimidin-4-one] | 4.1 nM
6 | O=C1CC[C@@H](CNCc2ccc(-c3cccc(-c4cccc(-c5ccn6c(=O)c(CNC[C@@H]7CCC(=O)N7)cnc6c5)c4Cl)c3Cl)cc2OC(F)(F)F)N1 [Example 87, 8-(2,2′-dichloro-4″-(((((S)-5-oxopyrrolidin-2-yl)methyl)amino)methyl)-3″-(trifluoromethoxy)-[1,1′:3′,1″-terphenyl]-3-yl)-3-(((((S)-5-oxopyrrolidin-2-yl)methyl)amino)methyl)-4H-pyrido[1,2-a]pyrimidin-4-one] | 2.6 nM
7 | Cc1c(-c2ccn3c(=O)c(CNC[C@@H]4CCC(=O)N4)cnc3c2)cccc1-c1cccc(-c2ccc(CNC[C@@H]3CCC(=O)N3)c(OC(F)(F)F)c2)c1Cl [Example 88, 8-(2′-Chloro-2-methyl-4″-(((((S)-5-oxopyrrolidin-2-yl)methyl)amino)methyl)-3″-(trifluoromethoxy)-[1,1′:3′,1″-terphenyl]-3-yl)-3-(((((S)-5-oxopyrrolidin-2-yl)methyl)amino)methyl)-4H-pyrido[1,2-a]pyrimidin-4-one] | 11 nM
8 | CNc1nc(-c2cccc(-c3cccc(-c4ccn5c(=O)c(CNC[C@@H]6CCC(=O)N6)cnc5c4)c3Cl)c2Cl)ccc1CNC[C@@H]1CCC(=O)N1 [Example 89, 8-(2,2′-Dichloro-3′-(6-(methylamino)-5-(((((S)-5-oxopyrrolidin-2-yl)methyl)amino)methyl)pyridin-2-yl)-[1,1′-biphenyl]-3-yl)-3-(((((S)-5-oxopyrrolidin-2-yl)methyl)amino)methyl)-4H-pyrido[1,2-a]pyrimidin-4-one] | 3.5 nM
9 | COc1cc(-c2cccc(-c3cccc(-c4ccn5c(=O)c(CNC[C@@H]6CCC(=O)N6)cnc5c4)c3Cl)c2Cl)ccc1CNC[C@@H]1CCC(=O)N1 [Example 90, 8-(2,2′-Dichloro-3″-methoxy-4″-(((((S)-5-oxopyrrolidin-2-yl)methyl)amino)methyl)-[1,1′:3′,1″-terphenyl]-3-yl)-3-(((((S)-5-oxopyrrolidin-2-yl)methyl)amino)methyl)-4H-pyrido[1,2-a]pyrimidin-4-one] | 1.5 nM
10 | COc1nc(-c2cccc(-c3cccc(-c4ccn5c(=O)c(CN6CC[C@H](C(=O)O)C6)cnc5c4)c3Cl)c2Cl)cnc1CN1CC(CO)C1 [Example 92, (S)-1-((8-(2,2′-Dichloro-3′-(5-((3-(hydroxymethyl)azetidin-1-yl)methyl)-6-methoxypyrazin-2-yl)-[1,1′-biphenyl]-3-yl)-4-oxo-4H-pyrido[1,2-a]pyrimidin-3-yl)methyl)pyrrolidine-3-carboxylic acid] | 0.3 nM
11 | COc1nc(-c2cccc(-c3cccc(-c4ccn5c(=O)c(CN6CC(C(=O)O)C6)cnc5c4)c3Cl)c2Cl)cnc1CN1CC(CO)C1 [Example 93, 1-((8-(2,2′-Dichloro-3′-(5-((3-(hydroxymethyl)azetidin-1-yl)methyl)-6-methoxypyrazin-2-yl)-[1,1′-biphenyl]-3-yl)-4-oxo-4H-pyrido[1,2-a]pyrimidin-3-yl)methyl)azetidine-3-carboxylic acid] | 0.3 nM
12 | COc1nc(-c2cccc(-c3cccc(-c4ccn5c(=O)c(CN6CC[C@H](C(=O)O)C6)cnc5c4)c3Cl)c2Cl)ccc1CNC[C@@H]1CCC(=O)N1 [Example 94, (S)-1-((8-(2,2′-Dichloro-3′-(6-methoxy-5-(((((S)-5-oxopyrrolidin-2-yl)methyl)amino)methyl)pyridin-2-yl)-[1,1′-biphenyl]-3-yl)-4-oxo-4H-pyrido[1,2-a]pyrimidin-3-yl)methyl)pyrrolidine-3-carboxylic acid] | 0.3 nM
13 | COc1nc(-c2cccc(-c3cccc(-c4ccn5c(=O)c(CNC[C@@H]6CCC(=O)N6)cnc5c4)c3Cl)c2C(F)(F)F)ccc1CNC[C@@H]1CCC(=O)N1 [Example 95, 8-(2-Chloro-3′-(6-methoxy-5-(((((S)-5-oxopyrrolidin-2-yl)methyl)amino)methyl)pyridin-2-yl)-2′-(trifluoromethyl)-[1,1′-biphenyl]-3-yl)-3-(((((S)-5-oxopyrrolidin-2-yl)methyl)amino)methyl)-4H-pyrido[1,2-a]pyrimidin-4-one] | 23 nM
14 | COc1nc(-c2cccc(-c3cccc(-c4ccn5c(=O)c(CNC[C@@H]6CCC(=O)N6)cnc5c4)c3C)c2C(F)(F)F)ccc1CNC[C@@H]1CCC(=O)N1 [Example 96, 8-(3′-(6-Methoxy-5-(((((S)-5-oxopyrrolidin-2-yl)methyl)amino)methyl)pyridin-2-yl)-2-methyl-2′-(trifluoromethyl)-[1,1′-biphenyl]-3-yl)-3-(((((S)-5-oxopyrrolidin-2-yl)methyl)amino)methyl)-4H-pyrido[1,2-a]pyrimidin-4-one] | 68 nM
15 | COc1nc(-c2cc(F)cc(-c3cccc(-c4ccn5c(=O)c(CNC[C@@H]6CCC(=O)N6)cnc5c4)c3C)c2Cl)ccc1CNC[C@@H]1CCC(=O)N1 [Example 97, 8-(2′-Chloro-5′-fluoro-3′-(6-methoxy-5-(((((S)-5-oxopyrrolidin-2-yl)methyl)amino)methyl)pyridin-2-yl)-2-methyl-[1,1′-biphenyl]-3-yl)-3-(((((S)-5-oxopyrrolidin-2-yl)methyl)amino)methyl)-4H-pyrido[1,2-a]pyrimidin-4-one] | 5.1 nM
16 | COc1nc(-c2cccc(-c3cccc(-c4ccn5c(=O)c(CN6CC(C(=O)O)C6)cnc5c4)c3Cl)c2Cl)ccc1CNC[C@@H]1CCC(=O)N1 [Example 98, (S)-1-((8-(2,2′-Dichloro-3′-(6-methoxy-5-((((5-oxopyrrolidin-2-yl)methyl)amino)methyl)pyridin-2-yl)-[1,1′-biphenyl]-3-yl)-4-oxo-4H-pyrido[1,2-a]pyrimidin-3-yl)methyl)azetidine-3-carboxylic acid] | 0.3 nM
17 | COc1nc(-c2cccc(-c3cccc(-c4cn5cc(CNC[C@@H]6CCC(=O)N6)ccc5n4)c3Cl)c2Cl)ccc1CNC[C@@H]1CCC(=O)N1 [Example 99, (S)-5-((((6-(2,2′-Dichloro-3′-(6-(((((S)-5-oxopyrrolidin-2-yl)methyl)amino)methyl)imidazo[1,2-a]pyridin-2-yl)-[1,1′-biphenyl]-3-yl)-2-methoxypyridin-3-yl)methyl)amino)methyl)pyrrolidin-2-one] | 4.8 nM
18 | COc1nc(-c2cccc(-c3cccc(-c4cn5cc(CNCCO)ccc5n4)c3Cl)c2Cl)ccc1CNCCO [Example 100, 2-(((2-(2,2′-Dichloro-3′-(5-(((2-hydroxyethyl)amino)methyl)-6-methoxypyridin-2-yl)-[1,1′-biphenyl]-3-yl)imidazo[1,2-a]pyridin-6-yl)methyl)amino)ethan-1-ol] | 4.3 nM
19 | COC(=O)[C@H](CO)NCc1cnc2cc(-c3cccc(-c4cccc(-c5ccc(CNC[C@@H]6CCC(=O)N6)c(OC)n5)c4Cl)c3Cl)ccn2c1=O [Example 101, Methyl ((8-(2,2′-dichloro-3′-(6-methoxy-5-(((((S)-5-oxopyrrolidin-2-yl)methyl)amino)methyl)pyridin-2-yl)-[1,1′-biphenyl]-3-yl)-4-oxo-4H-pyrido[1,2-a]pyrimidin-3-yl)methyl)-L-serinate] | 2.1 nM
20 | COc1nc(-c2cccc(-c3cccc(-c4ccn5c(=O)c(CNC[C@@H]6CCC(=O)N6)cnc5c4)c3Cl)c2Cl)ccc1CNCCO [Example 102, (S)-8-(2,2′-Dichloro-3′-(5-(((2-hydroxyethyl)amino)methyl)-6-methoxypyridin-2-yl)-[1,1′-biphenyl]-3-yl)-3-((((5-oxopyrrolidin-2-yl)methyl)amino)methyl)-4H-pyrido[1,2-a]pyrimidin-4-one] | 7.1 nM
